ChEMBL document CHEMBL1126027, “Oxidation chemistry and biochemistry of the central mammalian alkaloid 1-methyl-6-hydroxy-1,2,3,4-tetrahydro-beta-carboline” (1992)

Experiments:
Assay type in all cases: functional
Mus musculus [1] = species: Mus musculus; assay: Effect on whole mouse brain 5-HT acid level after 1 day (control = 100+/-2)
Mus musculus [2] = species: Mus musculus; assay: Effect on whole mouse brain 5-HT acid level after 1 week (control = 100+/-9)
Mus musculus [3] = species: Mus musculus; assay: Effect on whole mouse brain 5-HT acid level after 3h (control = 100+/-6)
Mus musculus [4] = species: Mus musculus; assay: Effect on whole mouse brain 5-hydroxyindoleacetic acid level after 1 day (control = 100+/-5)
Mus musculus [5] = species: Mus musculus; assay: Effect on whole mouse brain 5-hydroxyindoleacetic acid level after 1 week (control = 100+/-10)
Mus musculus [6] = species: Mus musculus; assay: Effect on whole mouse brain DOPAC level after 1 day (control = 100+/-6)
Mus musculus [7] = species: Mus musculus; assay: Effect on whole mouse brain DOPAC level after 1 week (control = 100+/-9)
Mus musculus [8] = species: Mus musculus; assay: Effect on whole mouse brain DOPAC level after 3h (control = 100+/-11)
Mus musculus [9] = species: Mus musculus; assay: Effect on whole mouse brain acetylcholine level after 1 day (control = 100+/-5)
Mus musculus [10] = species: Mus musculus; assay: Effect on whole mouse brain acetylcholine level after 1 week (control = 100+/-13)
Mus musculus [11] = species: Mus musculus; assay: Effect on whole mouse brain acetylcholine level after 3h (control = 100+/-5)
Mus musculus [12] = species: Mus musculus; assay: Effect on whole mouse brain choline level after 1 day (control = 100+/-9)
Mus musculus [13] = species: Mus musculus; assay: Effect on whole mouse brain choline level after 1 week (control = 100+/-9)
Mus musculus [14] = species: Mus musculus; assay: Effect on whole mouse brain choline level after 3h (control = 100+/-5)
Mus musculus [15] = species: Mus musculus; assay: Effect on whole mouse brain dopamine level after 1 week (control = 100+/-10)
Mus musculus [16] = species: Mus musculus; assay: Effect on whole mouse brain dopamine level after 3h (control = 100+/-3)
Mus musculus [17] = species: Mus musculus; assay: Effect on whole mouse brain homovanillic acid level after 1 day (control = 100+/-3)
Mus musculus [18] = species: Mus musculus; assay: Effect on whole mouse brain homovanillic acid level after 3h (control = 100+/-6)
Mus musculus [19] = species: Mus musculus; assay: Effect on whole mouse brain norepinephrine level after 1 day (control = 100+/-3)
Mus musculus [20] = species: Mus musculus; assay: Effect on whole mouse brain norepinephrine level after 1 week (control = 100+/-10)
Mus musculus [21] = species: Mus musculus; assay: Effect on whole mouse brain norepinephrine level after 3h (control = 100+/-8)
Mus musculus [22] = species: Mus musculus; assay: Effect on whole mouse brain 5-hydroxyindoleacetic acid level after 3h (control = 100+/-14)
Mus musculus [23] = species: Mus musculus; assay: Effect on whole mouse brain homovanillic acid level after 1 week (control = 100+/-5)
Mus musculus [24] = species: Mus musculus; assay: Effect on whole mouse brain 5-HT acid level after 1 day (control = 100+/-3)
Mus musculus [25] = species: Mus musculus; assay: Effect on whole mouse brain 5-hydroxyindoleacetic acid level after 1 day (control = 100+/-6)
Mus musculus [26] = species: Mus musculus; assay: Effect on whole mouse brain DOPAC level after 1 day (control = 100+/-4)
Mus musculus [27] = species: Mus musculus; assay: Effect on whole mouse brain acetylcholine level after 1 day (control = 100+/-8)
Mus musculus [28] = species: Mus musculus; assay: Effect on whole mouse brain choline level after 1 day (control = 100+/-1)
Mus musculus [29] = species: Mus musculus; assay: Effect on whole mouse brain dopamine level after 1 day (control = 100+/-3)
Mus musculus [30] = species: Mus musculus; assay: Effect on whole mouse brain homovanillic acid level after 1 day (control = 100+/-4)
Mus musculus [31] = species: Mus musculus; assay: Effect on whole mouse brain norepinephrine level after 1 day (control = 100+/-5)

**Q.** How did the Control (Mus musculus [1]) turn out when `CC1NCCc2c1[nH]c1ccc(O)c(-c3c(O)ccc4[nH]c5c(c34)CCNC5C)c21` (centres undefined) was run?
**A.** 111%

**Q.** And the Control (Mus musculus [2])?
**A.** 103%

**Q.** What about the Control (Mus musculus [3]) of the same molecule?
**A.** 107%

**Q.** What about the Control (Mus musculus [4]) of the same molecule?
**A.** 135%

**Q.** What about the Control (Mus musculus [5]) of the same molecule?
**A.** 99%

**Q.** What about the Control (Mus musculus [6]) of the same molecule?
**A.** 93%

**Q.** And the Control (Mus musculus [7])?
**A.** 96%

**Q.** And the Control (Mus musculus [8])?
**A.** 81%

**Q.** And the Control (Mus musculus [9])?
**A.** 78%

**Q.** And the Control (Mus musculus [10])?
**A.** 94%

**Q.** And the Control (Mus musculus [11])?
**A.** 98%

**Q.** And the Control (Mus musculus [12])?
**A.** 97%

**Q.** And the Control (Mus musculus [13])?
**A.** 107%

**Q.** And the Control (Mus musculus [14])?
**A.** 83%

**Q.** What about the Control (Mus musculus [15]) of the same molecule?
**A.** 98%

**Q.** And the Control (Mus musculus [16])?
**A.** 98%

**Q.** And the Control (Mus musculus [17])?
**A.** 107%

**Q.** And the Control (Mus musculus [18])?
**A.** 90%

**Q.** And the Control (Mus musculus [19])?
**A.** 105%

**Q.** What about the Control (Mus musculus [20]) of the same molecule?
**A.** 111%

**Q.** And the Control (Mus musculus [21])?
**A.** 93%

**Q.** And the Control (Mus musculus [22])?
**A.** 86%

**Q.** And the Control (Mus musculus [23])?
**A.** 100%

**Q.** `CC1NCCc2c1[nH]c1ccc(O)c(-c3c(O)ccc4[nH]c5c(c34)CCNC5C)c21` (stereo in doubt; 6) was tested. Which Control (Mus musculus [24]) did it give?
**A.** 107%

**Q.** What about the Control (Mus musculus [25]) of the same molecule?
**A.** 163%

**Q.** What about the Control (Mus musculus [26]) of the same molecule?
**A.** 101%

**Q.** What about the Control (Mus musculus [27]) of the same molecule?
**A.** 73%

**Q.** What about the Control (Mus musculus [28]) of the same molecule?
**A.** 97%

**Q.** And the Control (Mus musculus [29])?
**A.** 96%

**Q.** And the Control (Mus musculus [30])?
**A.** 132%

**Q.** What about the Control (Mus musculus [31]) of the same molecule?
**A.** 104%

**Q.** `CC1NCCc2c1[nH]c1ccc(O)c(-c3c(O)ccc4[nH]c5c(c34)CCNC5C)c21` (stereo in doubt; 5) was tested. Which Control (Mus musculus [24]) did it give?
**A.** 94%

**Q.** And the Control (Mus musculus [25])?
**A.** 146%

**Q.** And the Control (Mus musculus [26])?
**A.** 97%

**Q.** What about the Control (Mus musculus [27]) of the same molecule?
**A.** 87%

**Q.** And the Control (Mus musculus [28])?
**A.** 77%

**Q.** And the Control (Mus musculus [29])?
**A.** 90%

**Q.** And the Control (Mus musculus [30])?
**A.** 115%

**Q.** And the Control (Mus musculus [31])?
**A.** 102%
